Series [1] deals with MRSA BAA-1707. Nature of the series: MIC assay with metal(II) cation co-treatment. The settings on record: Staphylococcus aureus. The class given is cell-based, Staphylococcus aureus.
Series [2] has as its system MRSA BAA-1707. Nature of the series: MIC broth microdilution assay. The class given is cell-based, Staphylococcus aureus.
Series [3] concerns MRSA-1. Nature of the series: MIC broth microdilution assay. The class given is cell-based, Staphylococcus aureus. The settings on record: Staphylococcus aureus, MRSA; Table 1; read-out: MIC MRSA-1.
The test system of series [4] is MRSA-2. The series is described as follows: MIC broth microdilution assay. The class given is cell-based, Staphylococcus aureus. The settings on record: Staphylococcus aureus, MRSA; Table 1; read-out: MIC MRSA-2. A general note: In broth dilution the organism is exposed to a series of concentrations in liquid medium.
Series [5] has as its system VRE 700221. The series is described as follows: MIC broth microdilution assay. The class given is cell-based, Enterococcus faecium.
Series [6] has as its system MRSE 35984. Nature of the series: MIC broth microdilution assay. The class given is cell-based, Staphylococcus epidermidis. The settings on record: for MIC: Staphylococcus epidermidis, MRSE.
Series [7] concerns S. epi 12228. The series is described as follows: MIC broth microdilution assay. The class given is cell-based, Staphylococcus epidermidis. The settings on record: Staphylococcus epidermidis, 12228; Table 1; read-out: MIC S. epi 12228.
The subject of series [8] is MRSA BAA-44. Nature of the series: MIC broth microdilution assay. As to conditions: Staphylococcus aureus; Table 1; read-out: MIC MRSA BAA-44. The class given is cell-based.
A short description of series [9]: LDH release assay for HeLa cytotoxicity. The class given is cell-based. The settings on record: human, HeLa cells; LDH release, 24 hours; tested at 25, 50 and 100 µM; read-out: HeLa Cytotox. IC50. (In general: Release of lactate dehydrogenase indicates damage to the cell membrane.)
Series [10] deals with MRSA BAA-1707. Nature of the series: Calgary Biofilm Device (CBD) MBC/MBEC assay. The class given is cell-based, Staphylococcus aureus. As to conditions: Staphylococcus aureus, 24 h, CBD, planktonic killing, 24 hours treatment; read-out: MRSA BAA-1707 MBC.
The test system of series [11] is MRSE 35984. The series is described as follows: Calgary Biofilm Device (CBD) MBC/MBEC assay. The class given is cell-based, Staphylococcus epidermidis. As to conditions: Staphylococcus epidermidis, MRSE; CBD, planktonic killing; read-out: MRSE 35984 MBC.
Series [12] in a line: Hemolysis assay with red blood cells. As to conditions: human, pH 7.2.
Where [13] appears, read: Table 2, MRSA BAA-1707, no metal(II) cation added, read-out: MIC.
The mark [14] stands for this setting: copper(II) at 200 µM co-treatment, read-out: MIC w/Cu2+.
Setting [15] is: iron(II) at 200 µM co-treatment, read-out: MIC w/Fe2+.
Where [16] appears, read: magnesium(II) at 200 µM co-treatment, read-out: MIC w/Mg2+.
[17] abbreviates: zinc(II) at 200 µM co-treatment, read-out: MIC w/Zn2+.
The mark [18] stands for this setting: Staphylococcus aureus, Table 1, three independent experiments, read-out: MIC MRSA BAA-1707.
Setting [19] is: Staphylococcus aureus, single plate shown as picture, read-out: MIC (µM), MIC Assay against MRSA BAA-1707.
[20] abbreviates: Enterococcus, VRE, Table 1, read-out: MIC VRE 700221.
Setting [21] is: Table 1, read-out: MIC MRSE 35984.

In brackets after ≈: the same amount, converted by molar mass. Like-named read-outs stand apart in the source and are kept apart here. Marks after values point to notes of the source that are not given here.

With `Oc1cccc2nc3ccccc3nc12` [1-OHP, 1-hydroxyphenazine, reference compound], the MIC in series [1] (setting [13]) was 250 µM; in [1] (setting [14]), 75 µM; in series [1] (setting [15]) it was 250 µM; in [1] (setting [16]) it was 250 µM; in series [1] (setting [17]), more than 500 µM.

On to `Oc1cccc2cccnc12` [8-OHQ, 8-hydroxyquinoline, reference compound], for which the MIC in series [1] amounted to 9.38 µM; in series [1] (read-out: MIC w/Cu2+), 4.69 µM; in series [1] (read-out: MIC w/Fe2+) it was 12.5 µM; in series [1] (read-out: MIC w/Mg2+), 6.25 µM; in series [1] (read-out: MIC w/Zn2+), 12.5 µM.

`C[C@H]1c2cccc(O)c2C(=O)C2=C(O)[C@]3(O)C(=O)C(C(N)=O)=C(O)[C@@H](N(C)C)[C@@H]3[C@@H](O)[C@@H]21` [Doxy., Doxycycline, reference compound]: the MIC in [1] (setting [13]) was 0.78 µM; in series [1] (setting [14]), 0.78 µM; in series [1] (setting [15]), 3.13 µM; in series [1] (setting [16]), 0.78 µM; in series [1] (setting [17]), 0.39 µM.

As for `CCCCc1cc(Br)c(O)c2nc3ccccc3nc12` [HP 2], the MIC in series [2] (setting [18]) was determined as 0.78 µM (≈ 0.258 µg/mL); in series [2] (setting [19]) it was 0.78 µM (≈ 0.258 µg/mL); in [3], 0.78 µM (≈ 0.258 µg/mL); in series [4], 3.13 µM (≈ 1.04 µg/mL); in series [5] (setting [20]), 0.78 µM (≈ 0.258 µg/mL).

Consider `Oc1c(Br)cc(Br)c2nc3ccc(Br)cc3nc12` [HP 3], for which the MIC in series [2] (setting [18]) is 0.2 µM (≈ 0.0866 µg/mL); in series [6] (setting [21]), 3.13 µM (≈ 1.35 µg/mL); in series [7], 3.13 µM (≈ 1.35 µg/mL).

By IC50 is commonly meant the concentration at which inhibition is half-maximal. As to `Cc1cc(Br)c(O)c2nc3ccccc3nc12` [HP 4], the MIC is 3.13 µM (≈ 0.905 µg/mL) in series [2] (setting [18]); 3.13 µM (≈ 0.905 µg/mL) in series [2] (Staphylococcus aureus, Table 3, read-out: MRSA BAA-1707 MIC); 3.13 µM (≈ 0.905 µg/mL) in series [2] (setting [19]); 50 µM (≈ 14.5 µg/mL) in series [8]; 50 µM (≈ 14.5 µg/mL) in series [3]; 3.13 µM (≈ 0.905 µg/mL) in series [4]. Besides, the MIC in series [7] is 3.13 µM (≈ 0.905 µg/mL); in series [5] (setting [20]), 3.13 µM (≈ 0.905 µg/mL); in [5] (Enterococcus, VRE, Table 3, read-out: VRE 700221 MIC), 3.13 µM (≈ 0.905 µg/mL). The IC50 at 24 h in series [9] was more than 100 µM. In addition, the MBC in series [10] came to 46.9 µM (≈ 13.6 µg/mL); in series [11], 150 µM (≈ 43.4 µg/mL). In addition, the hemolysis at 1 h, 200 µM in [12] was not above 1%.

For `Cc1cccc2nc3c(O)c(Br)cc(C)c3nc12` [HP 5], the MIC in series [2] (setting [18]) was 9.38 µM (≈ 2.84 µg/mL); in series [2] (setting [19]), 12.5 µM (≈ 3.79 µg/mL); in series [3] it was 37.5 µM (≈ 11.4 µg/mL); in series [5] (setting [20]) it was more than 100 µM.

As to `CCc1cccc2nc3c(O)c(Br)cc(C)c3nc12` [HP 6], the MIC in series [3] was 0.78 µM (≈ 0.247 µg/mL); in series [6] (setting [21]), 0.3 to 0.78 µM (≈ 0.0952 to 0.247 µg/mL); in series [5] (setting [20]), 0.78 to 2.35 µM (≈ 0.247 to 0.745 µg/mL); in series [5] (Table 1, read-out: MIC VRE 700221), 0.78 µM (≈ 0.247 µg/mL). Also, the “MIC MRSE 35984” value in series [6] (Table 1) was 0.30^a µM.

For `Cc1ccc2nc3c(O)c(Br)cc(C)c3nc2c1C` [HP 7], in series [3], the MIC stood at 50 µM (≈ 15.9 µg/mL).

As to `Cc1cc(Br)c(O)c2nc3cc(C(C)(C)C)ccc3nc12` [HP 8], the MIC in series [2] (setting [18]) was more than 100 µM; in series [2] (Table 1, three independent experiments, read-out: MIC MRSA BAA-1707) it was more than 100 µM; in [3], more than 100 µM; in series [6] (setting [21]) it was more than 100 µM; in [6] (single plate shown as picture, read-out: MIC (µM), MIC Assay Against MRSE 35984) it was more than 100 µM; in series [5] (setting [20]) it was more than 100 µM.

With `CCc1cc(Br)c2nc3c(C)cc(Br)c(O)c3nc2c1` [HP 10], the MIC is 50 µM (≈ 19.8 µg/mL) in series [3], 37.5 µM (≈ 14.9 µg/mL) in series [6] (setting [21]) and 50 µM (≈ 19.8 µg/mL) in [5] (setting [20]).

(Values after publication PMC5435703 (Scientific Reports, 2017).)
